Data from ChEMBL document CHEMBL5543142, “Discovery of YFJ-36: Design, Synthesis, and Antibacterial Activities of Catechol-Conjugated β-Lactams against Gram-Negative Bacteria” (J Med Chem, 2024).
Values after ≈ are worked out from the molar mass of the structure shown.

Assays:
[1] = test system: Escherichia coli; test: Antibacterial activity against ESBL-producing multidrug-resistant Escherichia coli clinical isolate 14-1 assessed as inhibition of bacterial growth incubated for 18 to 20 hrs by two fold serial dilution assay; format: functional; conditions: time 18-20 hrs
[2] = test system: Escherichia coli; test: Antibacterial activity against ESBL-producing multidrug-resistant Escherichia coli clinical isolate 14-2 assessed as inhibition of bacterial growth incubated for 18 to 20 hrs by two fold serial dilution assay; format: functional; conditions: time 18-20 hrs
[3] = test system: Escherichia coli; test: Antibacterial activity against ESBL-producing multidrug-resistant Escherichia coli clinical isolate 14-4 assessed as inhibition of bacterial growth incubated for 18 to 20 hrs by two fold serial dilution assay; format: functional; conditions: time 18-20 hrs
[4] = test system: Acinetobacter baumannii; test: Antibacterial activity against OXA-23 producing multidrug-resistant Acinetobacter baumannii clinical isolate 15-1 assessed as inhibition of bacterial growth incubated for 18 to 20 hrs by two fold serial dilution assay; format: functional; conditions: time 18-20 hrs
[5] = test system: Acinetobacter baumannii; test: Antibacterial activity against OXA-23 producing multidrug-resistant Acinetobacter baumannii clinical isolate 15-2 assessed as inhibition of bacterial growth incubated for 18 to 20 hrs by two fold serial dilution assay; format: functional; conditions: time 18-20 hrs
[6] = test system: Acinetobacter baumannii; test: Antibacterial activity against OXA-23 producing multidrug-resistant Acinetobacter baumannii clinical isolate 15-3 assessed as inhibition of bacterial growth incubated for 18 to 20 hrs by two fold serial dilution assay; format: functional; conditions: time 18-20 hrs
[7] = test system: Acinetobacter baumannii; test: Antibacterial activity against OXA-23 producing multidrug-resistant Acinetobacter baumannii clinical isolate 15-4 assessed as inhibition of bacterial growth incubated for 18 to 20 hrs by two fold serial dilution assay; format: functional; conditions: time 18-20 hrs
[8] = test system: Acinetobacter baumannii; test: Antibacterial activity against OXA-23 producing multidrug-resistant Acinetobacter baumannii clinical isolate 15-5 assessed as inhibition of bacterial growth incubated for 18 to 20 hrs by two fold serial dilution assay; format: functional; conditions: time 18-20 hrs
[9] = test system: Klebsiella pneumoniae; test: Antibacterial activity against KPC-2 producing multidrug-resistant Klebsiella pneumoniae clinical isolate 15-1 assessed as inhibition of bacterial growth incubated for 18 to 20 hrs by two fold serial dilution assay; format: functional; conditions: time 18-20 hrs
[10] = test system: Klebsiella pneumoniae; test: Antibacterial activity against KPC-2 producing multidrug-resistant Klebsiella pneumoniae clinical isolate 15-2 assessed as inhibition of bacterial growth incubated for 18 to 20 hrs by two fold serial dilution assay; format: functional; conditions: time 18-20 hrs
[11] = test system: Klebsiella pneumoniae; test: Antibacterial activity against KPC-2 producing multidrug-resistant Klebsiella pneumoniae clinical isolate 15-5 assessed as inhibition of bacterial growth incubated for 18 to 20 hrs by two fold serial dilution assay; format: functional; conditions: time 18-20 hrs
[12] = test system: Escherichia coli; test: Antibacterial activity against Escherichia coli ATCC35218 assessed as inhibition of bacterial growth incubated for 18 to 20 hrs by two fold serial dilution assay; format: functional; conditions: time 18-20 hrs
[13] = test system: Pseudomonas aeruginosa; test: Antibacterial activity against IMP-4 producing multidrug-resistant Pseudomonas aeruginosa clinical isolate 17-13 assessed as inhibition of bacterial growth incubated for 18 to 20 hrs by two fold serial dilution assay; format: functional; conditions: time 18-20 hrs
[14] = test system: Pseudomonas aeruginosa; test: Antibacterial activity against IMP-4 producing multidrug-resistant Pseudomonas aeruginosa clinical isolate 17-1 assessed as inhibition of bacterial growth incubated for 18 to 20 hrs by two fold serial dilution assay; format: functional; conditions: time 18-20 hrs
[15] = test system: Pseudomonas aeruginosa; test: Antibacterial activity against IMP-4 producing multidrug-resistant Pseudomonas aeruginosa clinical isolate 19-17 assessed as inhibition of bacterial growth incubated for 18 to 20 hrs by two fold serial dilution assay; format: functional; conditions: time 18-20 hrs
[16] = test system: Klebsiella pneumoniae; test: Antibacterial activity against KPC-2 producing multidrug-resistant Klebsiella pneumoniae clinical isolate 15-3 assessed as inhibition of bacterial growth incubated for 18 to 20 hrs by two fold serial dilution assay; format: functional; conditions: time 18-20 hrs
[17] = test system: Escherichia coli; test: Antibacterial activity against Escherichia coli NCTC-13353 assessed as inhibition of bacterial growth incubated for 18 to 20 hrs in presence of CAMHB medium by two fold serial dilution assay; format: functional; conditions: time 18-20 hrs
[18] = test system: Escherichia coli; test: Antibacterial activity against Escherichia coli ATCC-35218 assessed as inhibition of bacterial growth incubated for 18 to 20 hrs in presence of CAMHB medium by two fold serial dilution assay; format: functional; conditions: time 18-20 hrs
[19] = test system: Klebsiella pneumoniae; test: Antibacterial activity against Klebsiella pneumoniae ATCC BAA-1898 assessed as inhibition of bacterial growth incubated for 18 to 20 hrs in presence of CAMHB medium by two fold serial dilution assay; format: functional; conditions: time 18-20 hrs
[20] = test system: Escherichia coli; test: Antibacterial activity against Escherichia coli NCTC-13353 assessed as inhibition of bacterial growth incubated for 18 to 20 hrs in presence of iron-depleted CAMHB medium by two fold serial dilution assay; format: functional; conditions: time 18-20 hrs
[21] = test system: Escherichia coli; test: Antibacterial activity against Escherichia coli ATCC-35218 assessed as inhibition of bacterial growth incubated for 18 to 20 hrs in presence of iron-depleted CAMHB medium by two fold serial dilution assay; format: functional; conditions: time 18-20 hrs
[22] = test system: Klebsiella pneumoniae; test: Antibacterial activity against Klebsiella pneumoniae ATCC BAA-1898 assessed as inhibition of bacterial growth incubated for 18 to 20 hrs in presence of iron-depleted CAMHB medium by two fold serial dilution assay; format: functional; conditions: time 18-20 hrs
[23] = AUC (0 to infinity) in ICR mouse at 20 mg/kg,iv administration measured upto 6 hrs by LC-MS/MS analysis; format: ADME, organism-based; conditions: in vivo
[24] = Clearance in ICR mouse at 20 mg/kg,iv administration measured upto 6 hrs by LC-MS/MS analysis; format: ADME, organism-based; conditions: in vivo
[25] = Half life in ICR mouse at 20 mg/kg,iv administration measured upto 6 hrs by LC-MS/MS analysis; format: ADME, organism-based; conditions: in vivo
[26] = MRT in ICR mouse at 20 mg/kg,iv administration measured upto 6 hrs by LC-MS/MS analysis; format: ADME, organism-based; conditions: in vivo
[27] = Volume of distribution at steady state in ICR mouse at 20 mg/kg,iv administration measured upto 6 hrs by LC-MS/MS analysis; format: ADME, organism-based; conditions: in vivo, read-out: Vdss
[28] = molecular target: hERG (KCNH2) (Homo sapiens, UniProt Q12809); test: Inhibition of hERG at 40 uM by whole cell Qpatch assay relative to control; format: toxicity
hERG (KCNH2), sequence (Q12809 whole entry): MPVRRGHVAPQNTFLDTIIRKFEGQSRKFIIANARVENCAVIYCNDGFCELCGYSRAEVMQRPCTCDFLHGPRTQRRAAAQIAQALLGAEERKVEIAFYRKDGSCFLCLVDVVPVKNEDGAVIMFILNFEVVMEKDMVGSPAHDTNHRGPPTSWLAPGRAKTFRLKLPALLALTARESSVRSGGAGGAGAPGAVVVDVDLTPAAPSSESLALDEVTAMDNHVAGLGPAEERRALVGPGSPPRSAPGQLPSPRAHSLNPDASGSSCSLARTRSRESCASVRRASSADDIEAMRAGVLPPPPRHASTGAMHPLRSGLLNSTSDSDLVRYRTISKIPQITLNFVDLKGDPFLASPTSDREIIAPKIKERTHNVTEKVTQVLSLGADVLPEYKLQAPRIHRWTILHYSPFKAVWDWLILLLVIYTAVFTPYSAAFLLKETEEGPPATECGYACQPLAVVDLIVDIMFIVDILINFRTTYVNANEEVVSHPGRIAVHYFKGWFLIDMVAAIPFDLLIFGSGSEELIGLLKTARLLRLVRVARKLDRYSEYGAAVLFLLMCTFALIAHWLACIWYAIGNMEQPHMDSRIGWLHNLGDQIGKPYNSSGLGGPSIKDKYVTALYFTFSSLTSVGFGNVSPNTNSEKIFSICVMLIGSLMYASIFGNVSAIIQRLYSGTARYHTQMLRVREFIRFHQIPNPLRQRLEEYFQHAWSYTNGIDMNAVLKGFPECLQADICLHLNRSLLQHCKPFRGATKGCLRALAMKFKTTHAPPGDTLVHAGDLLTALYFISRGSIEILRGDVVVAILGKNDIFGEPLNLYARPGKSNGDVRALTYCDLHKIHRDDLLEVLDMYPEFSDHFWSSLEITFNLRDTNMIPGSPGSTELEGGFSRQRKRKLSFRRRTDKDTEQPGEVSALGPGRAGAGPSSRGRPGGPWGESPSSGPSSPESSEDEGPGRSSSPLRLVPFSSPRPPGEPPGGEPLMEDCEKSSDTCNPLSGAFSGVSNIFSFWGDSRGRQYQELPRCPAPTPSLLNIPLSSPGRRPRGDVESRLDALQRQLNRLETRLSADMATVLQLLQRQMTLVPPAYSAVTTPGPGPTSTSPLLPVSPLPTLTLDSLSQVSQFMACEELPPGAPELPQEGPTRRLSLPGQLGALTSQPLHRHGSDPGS

[29] = molecular target: Voltage-gated inwardly rectifying potassium channel KCNH2 (Homo sapiens, UniProt Q12809); test: Inhibition of hERG by whole cell Qpatch assay; format: toxicity
Voltage-gated inwardly rectifying potassium channel KCNH2, sequence (Q12809 whole entry): as above

[30] = test system: Pseudomonas aeruginosa; test: Antibacterial activity against Pseudomonas aeruginosa ATCC 27853 assessed as inhibition of bacterial growth incubated for 18 to 20 hrs by two fold serial dilution assay; format: functional; conditions: time 18-20 hrs
[31] = test system: Pseudomonas aeruginosa; test: Antibacterial activity against IMP-4 producing multidrug-resistant Pseudomonas aeruginosa clinical isolate 15-1 assessed as inhibition of bacterial growth incubated for 18 to 20 hrs by two fold serial dilution assay; format: functional; conditions: time 18-20 hrs
[32] = test system: Pseudomonas aeruginosa; test: Antibacterial activity against IMP-4 producing multidrug-resistant Pseudomonas aeruginosa clinical isolate 15-5 assessed as inhibition of bacterial growth incubated for 18 to 20 hrs by two fold serial dilution assay; format: functional; conditions: time 18-20 hrs
[33] = test system: Acinetobacter baumannii; test: Antibacterial activity against OXA-23 producing multidrug-resistant Acinetobacter baumannii clinical isolate 17-2 assessed as inhibition of bacterial growth incubated for 18 to 20 hrs by two fold serial dilution assay; format: functional; conditions: time 18-20 hrs
[34] = test system: Pseudomonas aeruginosa; test: Antibacterial activity against IMP-4 producing multidrug-resistant Pseudomonas aeruginosa clinical isolate 19-5 assessed as inhibition of bacterial growth incubated for 18 to 20 hrs by two fold serial dilution assay; format: functional; conditions: time 18-20 hrs
[35] = test system: Pseudomonas aeruginosa; test: Antibacterial activity against IMP-4 producing multidrug-resistant Pseudomonas aeruginosa clinical isolate 19-1 assessed as inhibition of bacterial growth incubated for 18 to 20 hrs by two fold serial dilution assay; format: functional; conditions: time 18-20 hrs
[36] = test system: Acinetobacter baumannii; test: Antibacterial activity against OXA-23 producing multidrug-resistant Acinetobacter baumannii clinical isolate 17-5 assessed as inhibition of bacterial growth incubated for 18 to 20 hrs by two fold serial dilution assay; format: functional; conditions: time 18-20 hrs
[37] = test system: Acinetobacter baumannii; test: Antibacterial activity against OXA-23 producing multidrug-resistant Acinetobacter baumannii clinical isolate 17-6 assessed as inhibition of bacterial growth incubated for 18 to 20 hrs by two fold serial dilution assay; format: functional; conditions: time 18-20 hrs
[38] = test system: Acinetobacter baumannii; test: Antibacterial activity against OXA-23 producing multidrug-resistant Acinetobacter baumannii clinical isolate 17-7 assessed as inhibition of bacterial growth incubated for 18 to 20 hrs by two fold serial dilution assay; format: functional; conditions: time 18-20 hrs
[39] = test system: Acinetobacter baumannii; test: Antibacterial activity against OXA-23 producing multidrug-resistant Acinetobacter baumannii clinical isolate 17-8 assessed as inhibition of bacterial growth incubated for 18 to 20 hrs by two fold serial dilution assay; format: functional; conditions: time 18-20 hrs
[40] = test system: Escherichia coli; test: Antibacterial activity against Escherichia coli ATCC-35218 infected in ICR mouse assessed as inhibition of bacterial growth at iv after 1 and 5 hour of post-infection measured after 7 days; format: functional; conditions: ATCC-35218, 168 h, time 7 day
[41] = test system: Acinetobacter baumannii; test: Antibacterial activity against multidrug-resistant Acinetobacter baumannii BM-2023-D2-010 infected in ICR mouse assessed as inhibition of bacterial growth at iv after 1 and 5 hour of post-infection measured after 7 days; format: functional; conditions: BM-2023-D2-010, 168 h, time 7 day
[42] = test system: Acinetobacter baumannii; test: Antibacterial activity against multidrug-resistant Acinetobacter baumannii BM-2023-D2-010 infected in ICR mouse assessed as survival rate at 40 mg/kg,iv after 1 and 5 hour of post-infection measured after 7 days relative to control; format: functional; conditions: time 7 day

Nc1nc(/C(=N/OC(C(=O)O)C2CCC(F)(F)CC2)C(=O)N[C@@H]2C(=O)N3C(C(=O)O)=C(CSCCNC(=O)c4ccc(O)c(O)c4Cl)CS[C@H]23)cs1.O=C(O)C(F)(F)F (some centres not stated)
MIC [1]: 0.5 µg/mL
MIC [2]: 0.5 µg/mL
MIC [3]: 0.125 µg/mL
MIC [4]: 4 µg/mL
MIC [5]: 2 µg/mL
MIC [6]: 4 µg/mL
MIC [7]: 4 µg/mL
MIC [8]: 2 µg/mL
MIC [9]: 2 µg/mL
MIC [10]: 0.5 µg/mL
MIC [11]: 0.25 µg/mL
MIC [12]: ≤ 0.03 µg/mL
MIC [13]: 0.25 µg/mL
MIC [14]: 4 µg/mL
MIC [15]: 1 µg/mL
MIC [16]: 1 µg/mL
MIC [17]: 0.5 µg/mL
MIC [18]: 2 µg/mL
MIC [19]: 8 µg/mL
MIC [20]: 0.5 µg/mL
MIC [21]: 0.25 µg/mL
MIC [22]: 2 µg/mL
AUC(0-inf) [23]: 10400 ng·h/mL
clearance [24]: 33.9 mL/min/kg
half-life [25]: 3.14 h
MRT [26]: 0.76 h
Vd [27]: 1.59 L/kg
inhibition at 40 µM [28]: 16.8%
IC50 [29]: > 40 µM

C[C@@H](O)[C@H]1C(=O)N2C(C(=O)O)=C(S[C@@H]3CN[C@H](C(=O)N(C)C)C3)[C@H](C)[C@H]12 [MEROPENEM]
MIC [30]: 1 µg/mL (≈ 2.61 µM)
MIC [1]: 0.125 µg/mL (≈ 0.326 µM)
MIC [2]: 2 µg/mL (≈ 5.22 µM)
MIC [3]: 4 µg/mL (≈ 10.4 µM)
MIC [6]: 32 µg/mL (≈ 83.4 µM)
MIC [7]: 32 µg/mL (≈ 83.4 µM)
MIC [8]: 32 µg/mL (≈ 83.4 µM)
MIC [9]: > 64 µg/mL
MIC [10]: > 64 µg/mL
MIC [11]: > 64 µg/mL
MIC [31]: 32 µg/mL (≈ 83.4 µM)
MIC [32]: 16 µg/mL (≈ 41.7 µM)
MIC [12]: 0.06 µg/mL (≈ 0.156 µM)
MIC [13]: 16 µg/mL (≈ 41.7 µM)
MIC [14]: 4 µg/mL (≈ 10.4 µM)
MIC [15]: 32 µg/mL (≈ 83.4 µM)
MIC [33]: > 64 µg/mL
MIC [34]: 16 µg/mL (≈ 41.7 µM)
MIC [35]: 0.5 µg/mL (≈ 1.3 µM)
MIC [36]: > 64 µg/mL
MIC [37]: > 64 µg/mL
MIC [38]: > 64 µg/mL
MIC [39]: > 64 µg/mL
MIC [16]: > 64 µg/mL
MIC [17]: 32 µg/mL
MIC [40]: ≤ 0.03 µg/mL
MIC [41]: > 64 µg/mL
Activity [42]: 0%
